Measured values reported in patent publication US20210214758A1, “METHODS AND TOOLS FOR DETERMINING CLONAL RELATEDNESS AND PREDICTING CLONAL TRAITS” (priority 2018, published 2021).

Test system: Klebsiella isolates
Experiment: Antibiotic susceptibility of Klebsiella clinical isolates per 7-SNP clonotype (Lookup Table 1; disk diffusion)
Assay type: cell-based, Klebsiella spp.
Description: In further embodiments, the Lookup Table is Lookup Table 1. The information contained in Lookup Table 1 below was obtained from urine specimens from patients with Klebsiella infections from several clinics within different regions of the United States. CT=clonotypes determined using a 7-SNP combination: phoE54; rpoB130; infB279; mdh315; phoE336; phoE354; and mdh429.
Next, antibiotic resistance was determined for all 387 Klebsiella isolates in the discovery set. Antibiotic testing was carried out according to the standard disk diffusion method as described in the Clinical and Laboratory Standards Institute (M100 Performance Standards for Antimicrobial Susceptibility Testing, 27th Edition, 2017). […] Since almost all Klebsiella isolates are known to be resistant to AMP and sensitive to IMI, TET is not used for treatment of urinary tract infections, and ESBL production is partially reflected in resistance to CTR, these antibiotics were not included for further analysis.
To aid in clinical decision-making and to translate clonotype information to treatment selection, Lookup Table 1 was generated. […] The information contained in Lookup Table 1 was obtained from urine specimens from patients with Klebsiella infections from several clinics within different regions of the United States. Indications of allowance or non-recommendation were determined based on a 20% resistance threshold to the indicated antibiotic; i.e., the antibiotic is recommended when more than 80% of the tested isolates within the indicated clonotype were susceptible to the indicated antibiotic, and was cautioned against when less than 80% of the isolates were susceptible to the antibiotic.

Molecule: C[C@@H]1O[C@@H]1P(=O)(O)O [FOS, fosfomycin]
- susceptibility, % (CT 000): 63%
- susceptibility, % (CT 001): 0%
- susceptibility, % (CT 010): 33%
- susceptibility, % (CT 011): 9%
- susceptibility, % (CT 031): 33%
- susceptibility, % (CT 040): 25%
- susceptibility, % (CT 050): 29%
- susceptibility, % (CT 051): 41%
- susceptibility, % (CT 071): 80%
- susceptibility, % (CT 100): 71%
- susceptibility, % (CT 110): 0%
- susceptibility, % (CT 111): 30%
- susceptibility, % (CT 130): 29%
- susceptibility, % (CT 131): 36%
- susceptibility, % (CT 141): 0%
- susceptibility, % (CT 150): 42%
- susceptibility, % (CT 151): 43%
- susceptibility, % (CT 160): 0%
- susceptibility, % (CT 170): 39%
- susceptibility, % (CT 171): 22%
- susceptibility, % (CT 200): 43%
- susceptibility, % (CT 201): 26%
- susceptibility, % (CT 210): 45%
- susceptibility, % (CT 211): 43%
- susceptibility, % (CT 230): 100%
- susceptibility, % (CT 231): 100%
- susceptibility, % (CT 240): 100%
- susceptibility, % (CT 241): 0%
- susceptibility, % (CT 250): 55%
- susceptibility, % (CT 251): 40%
- susceptibility, % (CT 271): 38%
- susceptibility, % (CT 300): 0%
- susceptibility, % (CT 301): 24%
- susceptibility, % (CT 310): 33%
- susceptibility, % (CT 311): 35%
- susceptibility, % (CT 330): 40%
- susceptibility, % (CT 331): 32%
- susceptibility, % (CT 350): 44%
- susceptibility, % (CT 351): 35%
- susceptibility, % (CT 370): 25%
- susceptibility, % (CT 371): 50%
- susceptibility, % (CT 411): 50%
- susceptibility, % (CT 450): 33%
- susceptibility, % (CT 451): 33%
- susceptibility, % (CT 510): 50%
- susceptibility, % (CT 511): 100%
- susceptibility, % (CT 530): 14%
- susceptibility, % (CT 531): 33%
- susceptibility, % (CT 550): 33%
- susceptibility, % (CT 551): 36%
- susceptibility, % (CT 570): 50%
- susceptibility, % (CT 571): 25%
- susceptibility, % (CT 611): 33%
- susceptibility, % (CT 630): 0%
- susceptibility, % (CT 650): 37%
- susceptibility, % (CT 651): 24%
- susceptibility, % (CT 670): 0%
- susceptibility, % (CT 710): 33%
- susceptibility, % (CT 730): 21%
- susceptibility, % (CT 731): 43%
- susceptibility, % (CT 750): 60%
- susceptibility, % (CT 751): 17%
- susceptibility, % (CT 771): 36%
- susceptibility, % (CT Any Klebsiella spp.): 41%

Molecule: amoxicillin/clavulanate [AMC]
- susceptibility, % (CT 000): 92%
- susceptibility, % (CT 001): 100%
- susceptibility, % (CT 010): 100%
- susceptibility, % (CT 011): 91%
- susceptibility, % (CT 031): 67%
- susceptibility, % (CT 040): 75%
- susceptibility, % (CT 050): 90%
- susceptibility, % (CT 051): 90%
- susceptibility, % (CT 071): 80%
- susceptibility, % (CT 100): 86%
- susceptibility, % (CT 110): 100%
- susceptibility, % (CT 111): 90%
- susceptibility, % (CT 130): 98%
- susceptibility, % (CT 131): 69%
- susceptibility, % (CT 141): 100%
- susceptibility, % (CT 150): 87%
- susceptibility, % (CT 151): 78%
- susceptibility, % (CT 160): 100%
- susceptibility, % (CT 170): 96%
- susceptibility, % (CT 171): 92%
- susceptibility, % (CT 200): 69%
- susceptibility, % (CT 201): 89%
- susceptibility, % (CT 210): 71%
- susceptibility, % (CT 211): 90%
- susceptibility, % (CT 230): 100%
- susceptibility, % (CT 231): 100%
- susceptibility, % (CT 240): 0%
- susceptibility, % (CT 241): 100%
- susceptibility, % (CT 250): 100%
- susceptibility, % (CT 251): 93%
- susceptibility, % (CT 271): 96%
- susceptibility, % (CT 300): 100%
- susceptibility, % (CT 301): 96%
- susceptibility, % (CT 310): 80%
- susceptibility, % (CT 311): 80%
- susceptibility, % (CT 330): 95%
- susceptibility, % (CT 331): 86%
- susceptibility, % (CT 350): 83%
- susceptibility, % (CT 351): 92%
- susceptibility, % (CT 370): 100%
- susceptibility, % (CT 371): 75%
- susceptibility, % (CT 411): 100%
- susceptibility, % (CT 450): 100%
- susceptibility, % (CT 451): 100%
- susceptibility, % (CT 510): 100%
- susceptibility, % (CT 511): 100%
- susceptibility, % (CT 530): 93%
- susceptibility, % (CT 531): 83%
- susceptibility, % (CT 550): 86%
- susceptibility, % (CT 551): 50%
- susceptibility, % (CT 570): 75%
- susceptibility, % (CT 571): 100%
- susceptibility, % (CT 611): 100%
- susceptibility, % (CT 630): 100%
- susceptibility, % (CT 650): 91%
- susceptibility, % (CT 651): 92%
- susceptibility, % (CT 670): 100%
- susceptibility, % (CT 710): 100%
- susceptibility, % (CT 730): 60%
- susceptibility, % (CT 731): 98%
- susceptibility, % (CT 750): 95%
- susceptibility, % (CT 751): 100%
- susceptibility, % (CT 771): 100%
- susceptibility, % (CT Any Klebsiella spp.): 87%
